Values after ≈ are worked out from the molar mass of the structure shown. Like-named read-outs stand apart in the source and are kept apart here.
Experiments:
[1] = tested on: nosocomial pneumonia suspected or confirmed to be caused by Gram-positive pathogens; assay: Phase 2 study in nosocomial pneumonia, iclaprim versus vancomycin; assay type: in vivo, human
Excerpt: This MIC effect of surfactant on daptomycin activity has been reported to be mediated by binding of surfactant components to specific structures present on antibiotics, such as the lipophilic side-chain of daptomycin (Silverman et al., 2005). […] Collectively, the current in vitro study and a previous Phase 2 study support that iclaprim could be a potential treatment for pneumonia, including nosocomial pneumonia caused by susceptible and multidrug resistant Gram-positive bacteria.

[2] = exposure to iclaprim in Phase I studies; conditions: human, in vivo
[3] = PK of IV iclaprim in moderate hepatic impairment; assay type: in vivo, human; conditions: moderate hepatic impairment (Child-Pugh grade B)
Description: For example, the PK profile of 0.8 mg/kg iclaprim administered by IV was investigated in 8 subjects with mild to moderate obesity (body mass index or “BMI” 30-40) and in 8 subjects with severe obesity (BMI>40). […] Linear regression analysis indicated a strong linear relationship between AUC (and Cmax) and BMI. Thus it was clear that the body composition of the subject affected the pharmacokinetics of IV administered iclaprim, with a greater percentage of body fat causing an increase in AUC and Cmax. […] Thus there is a risk of overdosing subjects with moderate hepatic impairment, which can be mitigated by reducing the IV iclaprim dose by about 50%.

[4] = tested on: E. faecalis ATCC 33186; assay: MIC with/without bovine pulmonary surfactant; assay type: cell-based; conditions: Enterococcus faecalis
Description: (§1) Antibacterial susceptibility testing was measured by JMI Labs (North Liberty, Iowa, USA). […] These clinical isolates were collected from US (n=4), Mexico (n=2), and Italy (n=1). Susceptibility testing was performed by broth microdilution in accordance with the Clinical and Laboratory and Standards Institute (CLSI) guidelines M07-A10 (2015) and the standard operating procedures at JMI laboratories. Minimum inhibitory concentrations (MICS) were based on CLSI criteria (2015). There are no published breakpoints for iclaprim. E. coli, K. pneumoniae, M. catarrhalis, E. faecalis, and S. aureus were tested in cation-adjusted Mueller-Hinton broth (CA-MHB). S. pneumoniae were tested in CA-MHB supplemented with 2.5-5% lysed horse blood, and H. influenza were tested in Haemophilus test medium. Quality control and interpretation of results were performed in accordance with CLSI M100-S26 (2016) methods. QC ranges for iclaprim were those approved by CLSI and published in M100-S26 (2016). Iclaprim and comparator antibiotic MIC results were within the CLSI published ranges against E. coli ATCC 25922, E. faecalis ATCC 29212, E. faecalis ATCC 33186, H. influenzae ATCC 49247, K. pneumoniae ATCC 700603 (ESBL phenotype), S. aureus ATCC 29213, and S. pneumoniae ATCC 49619. Isolates were tested with MIC panels (ThermoFisher Scientific, Cleveland, Ohio, USA) of comparator antibiotics (daptomycin and levofloxacin).
(§2) Because bovine pulmonary surfactant can introduce cloudiness to the MIC testing media, antimicrobial growth inhibition was also evaluated using the colorimetric metabolic indicator resazurin (Camlab Ltd., Cambridge, UK). […] S. pneumoniae panels were omitted from resazurin analysis because the color change was obscured by the lysed horse blood present in the test medium. Growth inhibition was then evaluated as a visible color change from blue (no growth) to pink (robust growth) and recorded as a MIC1z value.
(§3) The MICs of iclaprim, levofloxacin, and daptomycin were determined against Gram-positive and Gram-negative isolates.
(§4) A new vial of bovine pulmonary surfactant (BPS; Survanta®; Abbott Laboratories, Columbus, Ohio) was utilized for each independent experiment. Each vial was mixed thoroughly and a 100 μL aliquot was spread on an agar plate, which was incubated overnight to confirm sterility. […] The concentration of surfactant was expressed in terms of percent volume of Survanta® suspension, which consisted of phospholipid (25 mg/mL) and surfactant proteins (<1 mg/mL) in 0.9% sodium chloride solution (Goerke, 1998). MICs of daptomycin were determined in CAMHB with the Ca^2+ content adjusted to 50 mg/L.

[5] = tested on: S. aureus Clinical Isolate 825189; assay: MIC with/without bovine pulmonary surfactant; assay type: cell-based; conditions: Staphylococcus aureus
Description: as §1, §2, §3, §4

[6] = tested on: E. faecalis ATCC 29212; assay: MIC with/without bovine pulmonary surfactant; assay type: cell-based; conditions: Enterococcus faecalis
Description: as §1, §2, §3, §4

[7] = tested on: E. coli ATCC 25922; assay: MIC with/without bovine pulmonary surfactant; assay type: cell-based; conditions: Escherichia coli
Description: as §1, §2, §3, §4

[8] = tested on: S. aureus ATCC 29213; assay: MIC with/without bovine pulmonary surfactant; assay type: cell-based; conditions: Staphylococcus aureus
Description: as §1, §2, §3, §4

[9] = tested on: H. influenzae ATCC 49247; assay: MIC with/without bovine pulmonary surfactant; assay type: cell-based; conditions: Haemophilus influenzae
Description: as §1, §2, §3, §4

[10] = tested on: S. aureus strain AH1252; assay: neutropenic rat lung infection model; assay type: in vivo, Staphylococcus aureus
Description: S. aureus strain AH1252, a thymidine knockout of the MRSA wild type AW6 strain, was utilized for this study. The bacterial strain was diluted in a 2% alginate buffer, which was added dropwise in a ratio of 1:5 into […] to form alginate beads. The alginate beads reduce the efficacy of bacterial clearance similar to that seen in the cystic fibrosis population. A 5.25×10^4 bacterial inoculum was administered to groups of 9 rats, intratracheally, with prepared alginate bacteria suspensions, under isoflurane anesthesia. […] Twelve hours after the last treatment, rats were euthanized and lungs collected for CFU determination.

Structure (SMILES): COc1cc(Cc2cnc(N)nc2N)c2c(c1OC)OC(C1CC1)C=C2 (racemic) [Iclaprim]
- cure rate, intent-to-treat population ([1]; iclaprim 0.8 mg/kg IV q12h, test of cure visit (17 of 23)): 73.9%
- cure rate, intent-to-treat population ([1]; iclaprim 1.6 mg/kg IV q8h, test of cure visit (15 of 24)): 62.5%
- death rate within 28 days of the start of treatment ([1]; iclaprim q8h (3 of 24)): 12.5%
- death rate within 28 days of the start of treatment ([1]; iclaprim q12h (2 of 23)): 8.7%
- AUC ([2]; 1 mg/kg): 2,575 ± 757 hr × ng/mL
- AUC ([2]; 4 mg/kg): 8,894 [29.0] hr × ng/mL
- Cmax ([2]; 4 mg/kg): 2,851 [19.2] ng/mL
- increase in AUC [3]: 2.5 fold
- increase in Cmax [3]: 1.4 fold
- MIC ([4]; ATCC33186, 2.5% v/v BPS, read-out: MIC, Resazurin: +BPS): ≤ 0.015 µg/mL
- MIC ([4]; ATCC33186, no BPS, read-out: MIC, Resazurin): 0.03 µg/mL (≈ 0.0846 µM)
- MIC ([5]; 2.5% v/v BPS, read-out: MIC, CLSI: +BPS): 0.12 µg/mL (≈ 0.339 µM)
- MIC ([5]; 2.5% v/v BPS, read-out: MIC, Resazurin: +BPS): 0.12 µg/mL (≈ 0.339 µM)
- MIC ([5]; no BPS, read-out: MIC, CLSI): 0.06 µg/mL (≈ 0.169 µM)
- MIC ([5]; no BPS, read-out: MIC, Resazurin): 0.06 µg/mL (≈ 0.169 µM)
- MIC ([6]; ATCC29212, 2.5% v/v BPS, read-out: MIC, Resazurin: +BPS): ≤ 0.015 µg/mL
- MIC ([6]; ATCC29212, no BPS, read-out: MIC, Resazurin): ≤ 0.015 µg/mL
- MIC ([7]; ATCC25922, 2.5% v/v BPS, read-out: MIC, CLSI: +BPS): 0.5 µg/mL (≈ 1.41 µM)
- MIC ([7]; ATCC25922, 2.5% v/v BPS, read-out: MIC, Resazurin: +BPS): 1 µg/mL (≈ 2.82 µM)
- MIC ([7]; ATCC25922, no BPS, read-out: MIC, CLSI): 0.5 µg/mL (≈ 1.41 µM)
- MIC ([7]; ATCC25922, no BPS, read-out: MIC, Resazurin): 1 µg/mL (≈ 2.82 µM)
- MIC ([8]; ATCC29213, 2.5% v/v BPS, read-out: MIC, CLSI: +BPS): 0.06 µg/mL (≈ 0.169 µM)
- MIC ([8]; ATCC29213, 2.5% v/v BPS, read-out: MIC, Resazurin: +BPS): 0.06 µg/mL (≈ 0.169 µM)
- MIC ([8]; ATCC29213, no BPS, read-out: MIC, CLSI): 0.06 µg/mL (≈ 0.169 µM)
- MIC ([8]; ATCC29213, no BPS, read-out: MIC, Resazurin): 0.06 µg/mL (≈ 0.169 µM)
- MIC ([9]; ATCC49247, 2.5% v/v BPS, read-out: MIC, Resazurin: +BPS): 0.25 µg/mL (≈ 0.705 µM)
- MIC ([9]; ATCC49247, no BPS, read-out: MIC, Resazurin): 0.25 µg/mL (≈ 0.705 µM)
- 72 hour lungs log10CFU/Lung (CFU/gram of lung) ([10]; 80 mg/kg SC/BID): 3.34
- Change in CFUs from 2 hr. infection controls ([10]; 80 mg/kg SC/BID): 0.22 log 10 CFU
- Change in CFUs from 72 hr. infection controls ([10]; 80 mg/kg SC/BID): −5.34 log 10 CFU
- Survival >60 hrs ([10]; 80 mg/kg SC/BID (160 mg/kg/day) 3 days): 9/9
- CFU reduction from the 72 hour infection controls ([10]; iclaprim 80 mg/kg SC/BID): 5.34 log 10 CFU

From US20190117653A1, “SYSTEMS AND METHODS FOR TREATING BACTERIAL INFECTION” (priority 2016, published 2019)
